Drawing on ChEMBL document CHEMBL1150185, “Antineoplastic agents, 195. Isolation and structure of aceratioside from Aceratium megalospermum” (1990), this text covers EC50 for one compound.

This experiment relates to P388. Kind of experiment: Cytostatic activity against mouse P388 cells. Type of experiment: functional. The following applies: read-out: ED50 (the source's name).

Molecules are shown by their SMILES. In brackets after ≈: the same amount, converted by molar mass.

`O=C(O)[C@H]1CCc2c(cc(O)cc2O[C@@H]2O[C@H](CO)[C@@H](O)[C@H](O)[C@H]2O)C1` [ACERATIOSIDE]: the EC50 stood at 9 µg/mL (≈ 24.3 µM).
